Laboratory results as given in patent EP0146338A2, “A blood accelerator 2, 3-diphosphoglyceric acid” (SHIRATORI PHARMACEUTICAL CO. LTD., priority 1983, dated 1985).

What was measured:
[1] = system: human ACD (acid chitorate dextrose) preserved blood; experiment: 2,3-DPG level after addition of naphthoquinone to preserved blood (Keitt's method); assay type: cell-based; conditions: for Blood level of 2,3-DPG: One hundred PM naphthoquinone in 1 ml human ACD preserved blood, 60 min at 37°C, control 294; for Concentrations of 2,3-DPG: preserved blood, mean ± standard error, n=30
[2] = system: fresh blood taken from a patient with an ischemic disease; experiment: 2,3-DPG level after addition of vitamin K3 to fresh blood of patients with an ischemic disease; assay type: cell-based, human; conditions: 100 µM
Experimental: One hundred PM of each naphthoquinone (use 10 mM naphthoquinone dissolved in 50 % ethanol solution) was added to 1 ml of human ACD (acid chitorate dextrose) preserved blood (of which 2,3-DPG concentration had decreased to 1/20 of the normal level). After incubation for 60 min at 37°C, the reaction was stopped by addition of perchloric acid. According to Keitt's method (J. Lab. Clin. Med. 77, 470-475 (1971)), thereafter, 2,3-DPG was extracted and quantified.
One hundred µM of vitamin K3 was added in 1 ml of fresh blood taken from a patient with an ischemic disease, and the concentration of 2,3-DPG was determined in the same manner as in Example 1.

[3] = Toxicity (LD50), mouse; conditions: in vivo
[4] = Toxicity (LD50), rat; conditions: in vivo, po

SMILES: O=C1C(Cl)=C(Cl)C(=O)c2ccccc21 [2,3-Dichloro-1,4-naphthoquinone, 2,3-dichloro-1,4-naphthoquinone]
- Blood level of 2,3-DPG [1]: 3971 n moles/ml RBC

SMILES: CC1=CC(=O)c2ccccc2C1=O [Vitamin K3, 2-methyl-l,4-naphthoqunone]
- Blood level of 2,3-DPG [1]: 3660 n moles/ml RBC
- Concentrations of 2,3-DPG ([1]; dose 10 µM, dose 0: 227 ± 15): 1124 ± 107 (30) n moles/ml RBC
- Concentrations of 2,3-DPG ([1]; dose 100 µM): 3256 ± 244 (30) n moles/ml RBC
- Concentrations of 2,3-DPG ([1]; dose 1000 µM): 5144 ± 253 (30) n moles/ml RBC
- Concentrations of 2,3-DPG ([1]; dose 10000 µM): 5569 ± 311 (30) n moles/ml RBC
- blood levels of 2,3-DPG in the patients with ischemic diseases (in words) ([2]; normal subjects 4931± 53): recovered to the normal level or higher levels
- Concentrations of 2,3-DPG ([2]; Buerger's Disease, n=12, no addition 4253±287): 5490±117(12) n moles/ml RBC
- Concentrations of 2,3-DPG ([2]; Closed arteriosclerosis, n=15, no addition 4796±365): 5624±266(15) n moles/ml RBC
- LD50 ([3]; po): 500 mg/kg

SMILES: O=C1C=CC(=O)c2ccccc21 [1,4-Naphthoquinone, 1,4-naphthoquinone]
- Blood level of 2,3-DPG [1]: 3554 n moles/ml RBC
- LD50 [4]: 190 mg/kg

SMILES: O=C1C=C(S(=O)(=O)O)c2ccccc2C1=O [1,2-Naphthoquinone-4-sulfonic acid, 1,2-naphthoquinone-4-sulfonic acid]
- Blood level of 2,3-DPG [1]: 3923 n moles/ml RBC
- LD50 ([3]; ip): 625 mg/kg
